Reference: patent publication US20020142016A1, “Stable skin care product containing a retinoid and a retinoid booster system in a dual compartment package” (priority 2000, published 2002)

Tests used:
[1] = Retinol stability in the presence of boosters (OD 360 nm); assay type: physicochemical; settings: booster approximately 0.1%, retinol in approx. 50% aqueous ethanol, 60 hours at room temperature in the dark
Experimental: Retinol (50% in tween 80) was dissolved in approximately 50% aqueous ethanol to provide a solution giving an OD at 360nm of approximately 0.6 when measured in a 200 μl volume in a 96 well plate using a standard 96 well spectrophotometer.
Booster molecules were added at approximately 0.1% concentration and the OD 360 measured as above immediately and after 60 hours at room temperature in the dark. A correction was applied to the OD after 60 hours (divide by 0.85) to account for increased concentration of the retinol due to evaporation of solvent from the plate.

[2] = test system: TGase I; assay: Transglutaminase (TGase I ELISA) assay in cultured keratinocytes with retinol; assay type: cell-based; settings: for IC50: Keratinocyte, concentration of booster which, with constant retinol 10^-7 M, inhibits TGase by 50%, read-out: Overall TG (IC 50); for % Inhibition Overall TG (-ROH/RE): added effect of booster+retinol induced TGase inhibition over retinol alone
[3] = test system: retinoic acid oxidation (cytochrome P450 systems); assay: Assay for NADPH dependent retinoic acid oxidation in rat liver microsomes; assay type: biochemical; settings: Sprague Dawley, pH 7.4, probe retinoic acid; for inhibition at 60 min, 100 µM: 10 μM
[4] = biological target: T1, LRAT (Bos taurus, UniProt Q9BGL2); assay: Assay for LRAT activity in RPE microsomes; assay type: biochemical, bovine; settings: 100 μm compound
T1 construct: followed by approximately 15 pg of RPE microsomal protein; tissue W. L. Lawson Co., Lincoln, Nebr; host or cells: bovine retinal pigment epithelium microsomes
T1 sequence (Q9BGL2 1-230): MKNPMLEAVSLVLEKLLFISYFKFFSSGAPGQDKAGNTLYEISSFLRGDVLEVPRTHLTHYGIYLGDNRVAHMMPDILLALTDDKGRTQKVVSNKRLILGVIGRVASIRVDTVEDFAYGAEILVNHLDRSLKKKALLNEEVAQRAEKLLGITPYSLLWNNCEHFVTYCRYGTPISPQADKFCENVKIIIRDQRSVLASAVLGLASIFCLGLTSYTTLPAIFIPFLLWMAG

Row | Molecule | FOLD INCREASE IN RATE OF RETINOL LOSS [1] | IC50 [2] | also measured
1 | Oc1cccc2cccnc12 [8 OH QUINOLINE] | 1.5 | – | –
2 | CC(=O)/C=C/C1C(C)=CCCC1(C)C (stereo not drawn) [Alpha-Ionone] | 1.3 | – | –
3 | COc1cc(NS(C)(=O)=O)ccc1Nc1c2ccccc2nc2ccccc12 [Amsacrine, reference compound] | – | 6.26 µM | –
4 | c1ccc(-c2ccc(C(c3ccccc3)n3ccnc3)cc2)cc1 (stereo not shown) [Bifonazole] | – | – | inhibition at 60 min, 10 µM [3]: 89%; inhibition at 60 min, 100 µM [3]: 100%
5 | O=c1ccc2ccccc2o1 [COUMARIN] | 1.4 | – | –
6 | CC1(C)[C@@H](OC(=O)CCC(=O)O)CC[C@]2(C)[C@H]3C(=O)C=C4[C@@H]5C[C@@](C)(C(=O)O)CC[C@]5(C)CC[C@@]4(C)[C@]3(C)CC[C@@H]12 [Carbenoxolone, reference compound] | – | 0.361 µM | –
7 | CC(C)=CCCC(C)=CC=O [Citral] | 3.1 | – | –
8 | CC(C)(C)C(=O)C(Oc1ccc(Cl)cc1)n1ccnc1 (stereo not shown) [Climbazole] | – | 4.47 µM | inhibition at 60 min, 10 µM [3]: 80%; inhibition at 60 min, 100 µM [3]: 92%
9 | Clc1ccccc1C(c1ccccc1)(c1ccccc1)n1ccnc1 [Clotrimazole] | – | – | inhibition at 60 min, 10 µM [3]: 76%
10 | CC(/C=C/C=C(\C)C(=O)O)=C\C=C\C=C(C)\C=C\C=C(/C)C(=O)O [Crocetin] | – | 37.5 µM | inhibition at 100 µM [4]: 15%
11 | CN1CCN(C)C1=O [Dimethyl Imidazolidinone] | 1.4 | – | % Inhibition Overall TG (-ROH/RE) [2]: 22%
12 | Clc1ccc(COC(Cn2ccnc2)c2ccc(Cl)cc2Cl)cc1 (stereo not shown) [Econazole] | – | – | inhibition at 60 min, 10 µM [3]: 88%; inhibition at 60 min, 100 µM [3]: 100%
13 | CCCCCCCC/C=C/CCCCCCCC(=O)O [Elaidic Acid] | – | 65 µM | –
14 | CC(C)=CCCC(C)=CCCC(C)=CCO [Farnesol] | – | 93.5 µM | inhibition at 100 µM [4]: 53%
15 | CC(C)=CCC/C(C)=C/CO [Geraniol] | 1.3 | 7830 µM | –
16 | CC(C)=CCC/C(C)=C/CC/C(C)=C/CC/C(C)=C/CO [Geranyl Geraniol] | – | – | inhibition at 100 µM [4]: 77%
17 | CC1(C)[C@@H](O)CC[C@]2(C)[C@H]3C(=O)C=C4[C@@H]5C[C@@](C)(C(=O)O)CC[C@]5(C)CC[C@@]4(C)[C@]3(C)CC[C@@H]12 [Glycyrretinic Acid] | 1.6 | – | –
18 | O=C(O)CCCCCCCCCCCCCCC(=O)O [Hexadecanedioic Acid] | – | 130 µM | –
19 | CC(C)CCCCCCCCCCCCCCC(=O)O [Isostearic Acid] | – | 68.8 µM | –

Row | Molecule | FOLD INCREASE IN RATE OF RETINOL LOSS [1] | IC50 [2] | also measured
20 | CC(=O)N1CCN(c2ccc(OCC3COC(Cn4ccnc4)(c4ccc(Cl)cc4Cl)O3)cc2)CC1 (stereo not shown) [Ketoconazole] | – | 0.185 µM | inhibition at 60 min, 10 µM [3]: 84%; inhibition at 60 min, 100 µM [3]: 84%
21 | CCCCCCCCCCCC(=O)N(C)CC(=O)O [Lauroyl Sarcosine] | 2.6 | – | –
22 | CCN(CC)CC(=O)Nc1c(C)cccc1C [Lidocaine, reference compound] | – | – | inhibition at 100 µM [4]: 0%
23 | CCCCC/C=C\C/C=C\CCCCCCCC(=O)N(CCO)CCO [Linoleamide-DEA (or Linoleoyl Diethanolamide)] | 3.0 | – | % Inhibition Overall TG (-ROH/RE) [2]: 59%
24 | CCCCC/C=C\C/C=C\CCCCCCCC(=O)NCCCN(C)C [Linoleamidopropyl Dimethylamine] | – | – | inhibition at 100 µM [4]: 75%
25 | CCCCC/C=C\C/C=C\CCCCCCCC(=O)O [Linoleic Acid] | 3.4 | 163 µM | –
26 | CC/C=C\C/C=C\C/C=C\CCCCCCCC(=O)O [Linolenic Acid] | – | 134 µM | –
27 | CCCCC/C=C/C/C=C/CCCCCCCC(=O)NC(C)c1ccccc1 (stereo not shown) [Melinamide, reference compound] | – | – | inhibition at 100 µM [4]: 43%
28 | CC(C)(C(=O)c1cccnc1)c1cccnc1 [Metyrapone (2-Methyl-1,2-di-3-Pyridyl-1-Propane] | – | – | inhibition at 60 min, 100 µM [3]: 47%
29 | Clc1ccc(COC(Cn2ccnc2)c2ccc(Cl)cc2Cl)c(Cl)c1 (stereo not shown) [Miconazole] | – | – | inhibition at 60 min, 10 µM [3]: 74%; inhibition at 60 min, 100 µM [3]: 86%
30 | CCCCCCCCCCCCCC(=O)O [Myristic Acid] | – | 17.2 µM | –
31 | CCCCCCCCCCCCCC(=O)N(C)CC(=O)O [Myristoyl Sarcosine] | – | – | inhibition at 100 µM [4]: 11%
32 | O=c1c(O)c(-c2ccc(O)c(O)c2)oc2cc(O)cc(O)c12 [Quercetin] | – | 62.9 µM | inhibition at 60 min, 10 µM [3]: 40%; inhibition at 60 min, 100 µM [3]: 74%
33 | CC(=O)c1cc2c(cc1C)C(C)(C)C(C)CC2(C)C (stereo not shown) [Tonalid] | – | – | inhibition at 100 µM [4]: 33%
34 | C[C@H]1[C@H](C)CC[C@]2(C(=O)O)CC[C@]3(C)C(=CC[C@@H]4[C@@]5(C)CC[C@H](O)C(C)(C)[C@@H]5CC[C@]43C)[C@H]12 [Urosolic Acid] | – | 1.46 µM | –
35 | COc1cc(C=O)ccc1O [Vanillin] | – | 9700 µM | –
36 | COCAMIDE DEA | 1.9 | – | –
37 | DAMASCONE | 3.7 | – | –
